According to ChEMBL document CHEMBL1201862, “PubChem BioAssay data set” (2004):
The source made the active and inactive calls.

Assays:
[1] = molecular target: G-protein coupled receptor 55 (Homo sapiens, UniProt Q9Y2T6); assay: inhibition of LPI-stimulated GPR55 beta-arrestin translocation – imaging, U2OS, beta-arrestin-GFP, LPI agonist, primary screen (AID 2013); assay type: functional;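 note: antagonist potency measured as reduced agonist-driven arrestin aggregation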
Bcl-2-related protein A1 = molecular target: T1, Bcl-2-related protein A1 (Mus musculus, UniProt Q07440); assay type: functional;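 note: confirmatory dose–response counterscreen on Bfl-1, used to check hits from a UBC13 polyubiquitin inhibitor campaign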
T1 sequence (Q07440 whole entry): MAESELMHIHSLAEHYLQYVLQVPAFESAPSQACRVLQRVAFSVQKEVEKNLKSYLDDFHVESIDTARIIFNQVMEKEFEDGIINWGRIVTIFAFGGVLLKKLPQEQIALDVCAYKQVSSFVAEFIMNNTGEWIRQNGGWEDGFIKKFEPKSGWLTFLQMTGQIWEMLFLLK

[2] = molecular target: T2, Ubiquitin-conjugating enzyme E2 N (Homo sapiens, UniProt P61088); assay type: functional
T2 sequence (P61088 whole entry): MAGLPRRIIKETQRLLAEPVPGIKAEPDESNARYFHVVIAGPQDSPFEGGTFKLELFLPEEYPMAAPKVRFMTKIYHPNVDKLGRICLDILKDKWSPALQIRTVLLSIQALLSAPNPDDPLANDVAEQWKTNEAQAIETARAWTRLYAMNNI

[3] = molecular target: T2, Ubiquitin-conjugating enzyme E2 N; assay type: functional; remark: listed apart in the source
[4] = molecular target: Peroxisome proliferator-activated receptor gamma/Nuclear receptor coactivator 1 (Homo sapiens, UniProt P37231); assay: TR-FRET dose response biochemical High Throughput Screening assay for agonists of the steroid receptor coactivator 1 (SRC-1) recruitment by the peroxisome proliferator-activated receptor gamma (PPAR gamma): non-selective agonists. [Related pubchem assays (depositor defined):AID1300, AID1808, AID504735, AID631]; assay type: protein assay
Peroxisome proliferator-activated receptor gamma/Nuclear receptor coactivator 1, sequence (P37231 whole entry): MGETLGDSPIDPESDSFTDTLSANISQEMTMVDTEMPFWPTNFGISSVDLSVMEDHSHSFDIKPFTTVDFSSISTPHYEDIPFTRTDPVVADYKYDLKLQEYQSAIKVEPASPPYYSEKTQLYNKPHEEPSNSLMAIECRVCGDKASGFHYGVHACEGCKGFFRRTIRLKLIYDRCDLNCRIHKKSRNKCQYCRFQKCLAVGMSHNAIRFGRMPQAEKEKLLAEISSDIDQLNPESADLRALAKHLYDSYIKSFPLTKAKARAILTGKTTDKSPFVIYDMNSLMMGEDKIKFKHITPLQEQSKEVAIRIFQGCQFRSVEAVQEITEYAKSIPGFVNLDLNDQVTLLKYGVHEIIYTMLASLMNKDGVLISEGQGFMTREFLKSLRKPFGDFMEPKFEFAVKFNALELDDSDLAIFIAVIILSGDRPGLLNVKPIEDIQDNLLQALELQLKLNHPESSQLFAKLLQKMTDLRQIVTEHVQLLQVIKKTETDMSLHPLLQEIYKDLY
Peroxisome proliferator-activated receptor gamma/Nuclear receptor coactivator 1, sequence (Q15788 whole entry, further chain): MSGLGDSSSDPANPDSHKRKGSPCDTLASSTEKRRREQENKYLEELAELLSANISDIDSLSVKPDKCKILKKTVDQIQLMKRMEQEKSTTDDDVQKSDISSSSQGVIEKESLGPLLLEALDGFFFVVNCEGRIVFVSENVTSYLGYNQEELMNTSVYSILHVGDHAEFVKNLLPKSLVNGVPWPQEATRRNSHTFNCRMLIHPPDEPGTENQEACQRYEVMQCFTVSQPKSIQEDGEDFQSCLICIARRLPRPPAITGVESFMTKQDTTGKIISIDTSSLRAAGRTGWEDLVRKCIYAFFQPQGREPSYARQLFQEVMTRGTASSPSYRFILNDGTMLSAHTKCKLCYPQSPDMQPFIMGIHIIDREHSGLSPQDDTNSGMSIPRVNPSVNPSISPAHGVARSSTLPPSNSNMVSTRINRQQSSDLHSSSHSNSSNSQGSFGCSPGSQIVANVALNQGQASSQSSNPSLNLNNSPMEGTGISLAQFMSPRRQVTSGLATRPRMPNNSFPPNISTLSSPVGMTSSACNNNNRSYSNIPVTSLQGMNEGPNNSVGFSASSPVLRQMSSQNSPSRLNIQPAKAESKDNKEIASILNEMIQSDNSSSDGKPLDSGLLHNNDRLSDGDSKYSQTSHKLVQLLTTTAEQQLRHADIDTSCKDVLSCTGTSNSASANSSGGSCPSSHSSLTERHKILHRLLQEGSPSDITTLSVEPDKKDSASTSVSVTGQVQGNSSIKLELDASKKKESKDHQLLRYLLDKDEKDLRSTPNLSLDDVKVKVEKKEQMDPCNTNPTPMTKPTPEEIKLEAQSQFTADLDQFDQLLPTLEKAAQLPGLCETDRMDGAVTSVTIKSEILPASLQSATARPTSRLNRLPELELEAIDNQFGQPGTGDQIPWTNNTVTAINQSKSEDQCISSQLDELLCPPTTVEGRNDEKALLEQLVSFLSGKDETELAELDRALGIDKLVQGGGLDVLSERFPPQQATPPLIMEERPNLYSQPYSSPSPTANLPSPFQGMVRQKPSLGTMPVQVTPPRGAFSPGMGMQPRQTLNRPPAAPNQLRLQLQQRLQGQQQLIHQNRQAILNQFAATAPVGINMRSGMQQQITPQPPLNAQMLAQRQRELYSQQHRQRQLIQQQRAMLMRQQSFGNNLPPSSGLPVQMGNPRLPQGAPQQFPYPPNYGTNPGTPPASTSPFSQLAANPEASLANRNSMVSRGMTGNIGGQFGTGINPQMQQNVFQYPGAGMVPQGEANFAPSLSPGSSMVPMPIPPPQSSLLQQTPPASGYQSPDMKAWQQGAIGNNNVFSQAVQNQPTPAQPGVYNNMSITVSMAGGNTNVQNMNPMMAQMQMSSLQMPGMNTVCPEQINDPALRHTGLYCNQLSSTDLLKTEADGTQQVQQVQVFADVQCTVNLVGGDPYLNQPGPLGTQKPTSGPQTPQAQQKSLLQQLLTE

[5] = molecular target: Peroxisome proliferator-activated receptor gamma/Nuclear receptor coactivator 2 (Homo sapiens, UniProt P37231); assay: (§1) TR-FRET dose response biochemical High Throughput Screening assay for agonists of the steroid receptor coactivator 2 (SRC-2) recruitment by the peroxisome proliferator-activated receptor gamma (PPAR gamma): non-selective agonists. [Related pubchem assays: 1297, 1032 ]; assay type: functional
[6] = molecular target: Peroxisome proliferator-activated receptor gamma/Nuclear receptor coactivator 3 (Homo sapiens, UniProt P37231); assay: as §1, with “3 (SRC-3)” for “2 (SRC-2)”, “1301 (Confirmation screen.), 1048 (Primary screen.)]” for “1297, 1032 ]”; assay type: functional
Peroxisome proliferator-activated receptor gamma/Nuclear receptor coactivator 3, sequence (P37231 whole entry): as the sequence (P37231 whole entry) above
Peroxisome proliferator-activated receptor gamma/Nuclear receptor coactivator 3, sequence (Q9Y6Q9 whole entry, further chain): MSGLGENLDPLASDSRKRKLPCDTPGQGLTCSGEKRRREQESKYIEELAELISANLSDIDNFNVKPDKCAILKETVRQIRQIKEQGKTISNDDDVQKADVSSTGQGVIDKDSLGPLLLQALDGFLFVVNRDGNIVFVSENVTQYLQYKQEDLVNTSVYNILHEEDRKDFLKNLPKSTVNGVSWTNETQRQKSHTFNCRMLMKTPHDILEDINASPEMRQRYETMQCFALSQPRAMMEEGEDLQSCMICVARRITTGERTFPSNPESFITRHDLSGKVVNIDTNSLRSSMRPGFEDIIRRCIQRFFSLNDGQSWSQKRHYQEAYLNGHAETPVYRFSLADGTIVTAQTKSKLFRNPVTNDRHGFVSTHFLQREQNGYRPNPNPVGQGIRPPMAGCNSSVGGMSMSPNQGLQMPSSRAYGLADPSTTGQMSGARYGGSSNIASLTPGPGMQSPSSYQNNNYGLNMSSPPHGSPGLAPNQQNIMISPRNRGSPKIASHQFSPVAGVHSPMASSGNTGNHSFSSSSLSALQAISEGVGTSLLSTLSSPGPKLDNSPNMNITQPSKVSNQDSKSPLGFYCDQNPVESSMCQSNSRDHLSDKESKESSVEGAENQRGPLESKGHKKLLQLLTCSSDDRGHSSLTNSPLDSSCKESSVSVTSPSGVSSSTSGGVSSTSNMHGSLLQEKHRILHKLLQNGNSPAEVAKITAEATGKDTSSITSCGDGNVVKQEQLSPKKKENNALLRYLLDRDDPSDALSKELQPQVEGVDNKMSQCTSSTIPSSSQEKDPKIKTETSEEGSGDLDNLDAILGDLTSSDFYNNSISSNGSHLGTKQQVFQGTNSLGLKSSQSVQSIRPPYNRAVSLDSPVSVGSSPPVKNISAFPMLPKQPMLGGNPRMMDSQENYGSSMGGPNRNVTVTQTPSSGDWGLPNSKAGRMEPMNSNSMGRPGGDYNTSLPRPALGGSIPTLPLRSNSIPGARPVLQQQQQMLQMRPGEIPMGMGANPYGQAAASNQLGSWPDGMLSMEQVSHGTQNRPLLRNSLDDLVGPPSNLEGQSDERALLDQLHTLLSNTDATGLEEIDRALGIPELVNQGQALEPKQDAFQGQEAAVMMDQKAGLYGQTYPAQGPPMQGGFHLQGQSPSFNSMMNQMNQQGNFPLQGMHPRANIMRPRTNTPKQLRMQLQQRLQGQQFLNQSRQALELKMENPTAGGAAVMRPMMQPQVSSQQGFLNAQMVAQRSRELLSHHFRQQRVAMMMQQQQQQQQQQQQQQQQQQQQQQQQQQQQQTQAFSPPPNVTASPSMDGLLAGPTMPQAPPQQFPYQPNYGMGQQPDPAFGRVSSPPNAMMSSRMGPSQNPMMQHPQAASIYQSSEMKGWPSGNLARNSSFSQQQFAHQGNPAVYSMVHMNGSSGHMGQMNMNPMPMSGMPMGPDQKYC

Vero = assay: cells; assay type: functional, cell-based; details: Chlorocebus sabaeus
[7] = viability of HCT116 lacking mutant beta-catenin – cell-based, human colon tumor, dose response (AID 1045); assay type: functional;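 note: HCT116 colon tumor cells with beta catenin knocked out; cells exposed to compound for 60 hours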
[8] = viability of PTEN-deleted HCT116 cells – cell-based, HCT116 PTEN knockout, dose response (AID 1047); assay type: functional;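 note: HCT116 colon tumor cells with PTEN knocked out; cells exposed to compound for 60 hours before readout; potency for loss of cell viability measured by luminescence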
[9] = Trypanosoma cruzi growth suppression in host cells – NIH3T3 host cells, beta-gal luminescence, confirmation (AID 2044); assay type: functional, cell-based;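 note: intracellular parasites grown in NIH/3T3 mouse fibroblasts as host cells; luminescent beta-galactosidase reporter signal from transgenic T. cruzi replicating inside host cells; inhibitors lower the luminescence signal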
[10] = NIH3T3 cell viability loss – ATP luminescence, mouse fibroblasts, counter-screen, dose response (AID 2010); assay type: functional, cell-based;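 note: cells exposed to compound for about 90 hours before reading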
[11] = test system: Streptococcus sp. 'group A'; assay: Streptococcus pyogenes SK(-)GAS viability under kanamycin – luminescence, BacTiterGlo, confirmation, counter-screen for streptokinase expression inhibitor project, dose response (AID 1900); assay type: functional, organism-based
Streptococcus = assay: GAS UMAA2166 growth inhibition – luminescence, BacTiterGlo, counter-screen for streptokinase expression inhibitor project, dose response (AID 1915); assay type: functional, organism-based;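 note: potency for reduction of bacterial viability or growth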
Streptokinase A = molecular target: T3, Streptokinase A (Streptococcus pyogenes serotype M1, UniProt P10520); assay: viability-normalized secreted streptokinase activity reduction – plasminogen activation absorbance, OD405, dose response (AID 1914); assay type: functional, Streptococcus pyogenes M1 GAS;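 note: secreted streptokinase activity via plasminogen activation per viability signal from cell pellet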
T3 sequence (P10520 whole entry): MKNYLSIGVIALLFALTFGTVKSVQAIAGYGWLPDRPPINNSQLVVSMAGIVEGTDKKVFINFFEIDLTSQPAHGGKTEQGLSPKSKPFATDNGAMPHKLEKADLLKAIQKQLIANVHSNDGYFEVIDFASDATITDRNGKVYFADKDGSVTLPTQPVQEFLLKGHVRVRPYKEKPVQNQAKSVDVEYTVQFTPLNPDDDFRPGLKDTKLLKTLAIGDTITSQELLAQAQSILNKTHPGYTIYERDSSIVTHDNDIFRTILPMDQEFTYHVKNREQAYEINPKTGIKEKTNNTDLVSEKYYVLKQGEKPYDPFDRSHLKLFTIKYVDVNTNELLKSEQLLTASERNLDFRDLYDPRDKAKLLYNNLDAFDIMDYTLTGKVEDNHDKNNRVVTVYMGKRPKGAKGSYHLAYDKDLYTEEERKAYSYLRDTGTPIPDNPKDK

G-protein coupled receptor 55, sequence (Q9Y2T6 whole entry): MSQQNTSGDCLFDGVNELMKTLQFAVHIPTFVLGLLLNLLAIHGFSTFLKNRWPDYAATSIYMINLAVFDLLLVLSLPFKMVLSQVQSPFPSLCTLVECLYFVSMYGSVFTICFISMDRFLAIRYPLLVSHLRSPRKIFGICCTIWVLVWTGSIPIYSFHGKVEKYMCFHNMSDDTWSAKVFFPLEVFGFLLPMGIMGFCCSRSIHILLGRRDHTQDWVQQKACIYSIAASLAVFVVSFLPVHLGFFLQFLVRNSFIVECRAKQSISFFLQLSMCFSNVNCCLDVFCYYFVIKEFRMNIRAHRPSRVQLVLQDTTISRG

Nc1ccc(N2CCCCC2)c(S(=O)(=O)Nc2ccccc2Cl)c1
IC50 [1]: 3.53 µM (active)

O=C(NNC(=O)c1nn(-c2ccc(F)cc2)ccc1=O)c1ccccc1Cl
IC50 (Bcl-2-related protein A1): > 20 µM (inactive)
IC50 [2]: 9.9 µM (active)
IC50 [3]: 4.29 µM (active)

CCOC(=O)N1CCC(NC(=O)CSc2cc(=O)n(CC)c3ccccc23)CC1
EC50 [4]: > 79.4 µM (inactive)
EC50 [5]: > 79.4 µM (not active)
EC50 [6]: > 79.4 µM (not active)

COc1cccc(-c2ccc(NC(=O)C3CCCN(Cc4cnn(C)c4)C3)cc2)c1 (stereo not given)
IC50 (Vero): 21.9 µM (active)

CCOc1ccccc1NC(=O)C(OC(=O)c1ccc(O)cc1)c1ccccc1 (stereo not given)
IC50 (Bcl-2-related protein A1): > 20 µM (inactive)
IC50 [2]: 15.2 µM (active)
EC50 [7]: 680 µM (active)
IC50 [3]: > 20 µM (inactive)
EC50 [8]: 729 µM (active)

O=C(NC12CC3CC(CC(C3)C1)C2)c1ccc(-c2ccc(Cl)cc2)o1
EC50 [9]: 2.11 µM (active)
IC50 [1]: 0.598 µM (active)
EC50 [10]: > 60 µM (not active)

COc1ccc(C(=O)NC(=S)N(Cc2ccccc2)Cc2ccccc2)cc1
EC50 [11]: 0.883 µM (active)
EC50 (Streptococcus): 14.5 µM (active)
IC50 [1]: 4.36 µM (active)
EC50 (Streptokinase A): > 150 µM (not active)
